Consider one compound from patent publication US20030224978A1, “Compounds and methods for modulating apoptosis” (McGill University, priority 1996, published 2003).

The nature of data set [1]: in vitro. Format: cell-based. Particulars: human. The gist of the method: (§1)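 Cytotoxicity assessed by MTT assay and proliferation by ³H-thymidine incorporation, with peptides tested at concentrations up to 100 μM.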
The test system of the next data set is SKOV3 cells. The experiment in a line: Disruption of human ovarian cancer cell (SKOV3) adhesion. Format: cell-based. As to conditions: 0.01-1 mg/mL, up to 48 hours. The source says:
Within one representative cell adhesion assay, the addition of a modulating agent to cells that express a cadherin results in disruption of cell adhesion. A “cadherin-expressing cell,” as used herein, may be any type of cell that expresses at least one cadherin on the cell surface at a detectable level, using standard techniques such as immunocytochemical protocols (Blaschuk and Farookhi, Dev. Biol. 136:564-567, 1989). Cadherin-expressing cells include endothelial (e.g., bovine pulmonary artery endothelial cells), epithelial and/or cancer cells (e.g., the human ovarian cancer cell line SKOV3 (ATCC #HTB-77)). For example, such cells may be plated under standard conditions that permit cell adhesion in the presence and absence of modulating agent (e.g., 500 μg/mL). Disruption of cell adhesion may be determined visually within 24 hours, by observing retraction of the cells from one another.
The human ovarian cancer cell line SKOV3 (ATCC #HTB-77) expresses N-cadherin. SKOV3 cells were cultured in a modified MEM-based media containing 10% FCS. Cells were grown in T-250 culture flasks and maintained by periodic subculturing. Cyclic peptides were tested on cells grown in individual wells of 96-well culture dishes (surface area of each well was 0.32 cm^2). Cells were harvested from flasks and seeded at a density of 50,000 cells per well in 0.1 mL media containing the cyclic peptides at concentrations of 1, 0.1, or 0.01 mg/mL, or in the absence of cyclic peptide. Media control wells were also established. Cultures were evaluated periodically by microscopic examination under both bright field and phase contrast conditions. Cultures were maintained for 48 hours.

The next data set concerns MDA-MB231. Format: cell-based. Particulars: human. The procedure: (§2) N-Ac-CHAVC-NH2 (SEQ ID NO:10) and the control peptide N-Ac-CHGVC-NH2 (SEQ ID NO:20) were evaluated for possible cytotoxic effects on human microvascular endothelial (HMVEC; Clonetics), human umbilical vein endothelial (HUVEC; ATCC #CRL-1730), IAFp2 (human fibroblast cell line; Institute Armand-Frapier, Montreal, Quebec), WI-38 (human fibroblast cell line; ATCC #CCL-75), MDA-MB231 (human breast cancer cell line; ATCC #HTB-26), and PC-3 (human prostate cancer cell line; ATCC #CRL-1435) cells utilizing the MTT assay (Plumb et al., Cancer Res. 49:4435-4440, 1989). Neither of the peptides was cytotoxic at concentrations up to and including 100 μM. Similarly, neither of the peptides was capable of inhibiting the proliferation of the above cell lines at concentrations up to 100 μM, as judged by ^3H-thymidine incorporation assays.

Data set [2] has as its system PC-3. It counts as cell-based. Particulars: human. The procedure: as §2
Data set [3] in a line: in vitro. As to conditions: human. It counts as cell-based. An outline of the steps:
as §1
The source holds these as a separate data set.

Data set [4] in a line: in vitro. Format: cell-based. Particulars: human. An outline of the steps:
as §1
This is another data set of the same source.

Another data set relates to HMVEC. Format: cell-based, human. As to conditions: 3 h. The method, then: as §2
The test system of data set [5] is PC-3. It counts as cell-based, human. Particulars: 3 h. The method, then: as §2
The subject of a further data set is WI-38. It counts as cell-based, human. As to conditions: 3 h. The method, then:
as §2

The subject of the next data set is IAFp2. It counts as cell-based, human. Particulars: 3 h. The method, then: as §2
Data set [6] can be described thus: in vitro. It counts as cell-based. As to conditions: human. The gist of the method:
as §1
The source holds these as a separate data set.

Like-named read-outs stand apart in the source and are kept apart here. Positions of bridges follow the written chain, without caps; N, C: chain ends. Residues, ends and D or L forms follow the SMILES beside them.

For the compound `CC(=O)N[C@H]1CCCCNC(=O)C[C@@H](C(N)=O)NC(=O)[C@H](C(C)C)NC(=O)[C@H](C)NC(=O)[C@H](Cc2c[nH]cn2)NC1=O` (Ac-KHAVD-NH2; lactam 1-5 (inferred)), the IC50 in the data set “in vitro [1]”, with MDA-MB231, with PC-3 [2], in the data set “in vitro [3]”, in the data set “in vitro [4]” and in the data set with HMVEC was above 100 µM each time. The IC50 with PC-3 [5], in the data set with WI-38, in the data set on IAFp2 and in “in vitro [6]” was above 100 µM in each case. In the data set with SKOV3 cells, the “activity on SKOV3 cell adhesion” value is “inactive”.

A word on the IC50: it is the concentration at which inhibition is half-maximal.
